# Test results from patent US20170121295A1, “POLYCYCLIC LPA1 ANTAGONIST AND USES THEREOF” (AMIRA PHARMACEUTICALS, INC., priority 2010, published 2017).
# Like-named read-outs stand apart in the source and are kept apart here.
# Tests used:
# [1] = Solubility assessment at various pH levels (solubility profile); type: physicochemical; settings: 0.15M NaCl solution, saline or isotonic, thermodynamic from solid
# Experimental: For solubility assessment at various pH levels sufficient material to produce a maximum concentration of 10 mg·ml^−1 of API was treated with 0.15M NaCl solution and then the pH adjusted with HCl or NaOH solutions to achieve the desired pH levels. The suspensions were allowed to equilibrate for 2 hours and the pH measured and adjusted if necessary. Suspensions were then filtered and the amount of dissolved API quantified by HPLC against a standard reference solution.
# (§1) Analysis was performed on an Agilent HP1100 series system equipped with a diode array detector and using ChemStation software vB.02.01-SR1.
# The solubility of both the free acid and amorphous sodium salt was determined at a range of pH values.
# [2] = Thermodynamic aqueous solubility; type: physicochemical; settings: water, equilibrated at 25° C. for 24 hours
# Experimental: Aqueous solubility was determined by suspending sufficient compound in water to give a maximum final concentration of ≧10 mg·ml−1 of the parent free-form of the compound. The suspension was equilibrated at 25° C. for 24 hours then the pH was measured. The suspension was then filtered through a glass fiber C filter into a 96 well plate unless stated otherwise. The filtrate was then diluted by a factor of 101. Quantification was by HPLC with reference to a standard solution of approximately 0.25 mg·ml^−1 in DMSO. Different volumes of the standard, diluted and undiluted sample solutions were injected. The solubility was calculated using the peak areas determined by integration of the peak found at the same retention time as the principal peak in the standard injection.
# as §1
# [3] = Pharmacokinetics in Sprague-Dawley Rats; type: in vivo; settings: for mean dose adjusted exposure (AUC0-24/D) / Cmax / bioavailability / AUC(0-t): PO 1 mg/kg; for mean dose adjusted exposure (AUC0-24/D) / dose adjusted AUC value (AUC0-24/D) / Cmax / bioavailability: fasted; for Cmax / bioavailability / AUC(0-t): Sprague-Dawley, rat, plasma; for Cmax: read-out: maximal plasma concentration (Cmax); for bioavailability: read-out: apparent bioavailability; for AUC(0-t): fed, read-out: exposure (AUC0-24)
# Experimental: The pharmacokinetics of Compound 1 and Compound 2 was assessed in male and female Sprague-Dawley rats (225-300 g at 10 weeks).
# Compound 2 (1 mg/kg) was administered intravenously (IV) to fasted rats (n=3) as a solution in purified water via a bolus injection into the jugular vein (1 mg/mL; 1 mL/kg). Compound 1 (10 mg/kg) was administered orally (PO), to fasted (for at least 12 hours) or non-fasted rats (n=2 or 3) as a solution in 0.5% methylcellulose unless otherwise noted via an oral gavage to the stomach (3.33 mg/mL; 3 mL/kg). Non-fasted animals were fasted for at least 12 hours and then were given food ad libitum for 1 hour prior to dosing. Fasted animals were dosed 1, 10, 30, 100 or 300 mg/kg Compound 1 as a solution in 0.5% methylcellulose via an oral gavage to the stomach (0.69 mg/mL, 10 mg/mL, 33.3 mg/mL or 100 mg/mL) (n=2 or 3 per dose group). In a gastrointestinal study, rats were anesthetized and Compound 1 was administered directly to the duodenum, jcjunum or ilcum at 1 mg/kg in 0.5% methylcellulose.
# Capsules were also administered with Compound 2. Capsules were size 9 gelatin (Torpac, San Diego, Calif.).
# Blood samples (approximately 300 μL total blood) were taken from each rat via the jugular vein cannula at pre-dose, and an initial time of 5 or 15 min and then various time points up to 24 hours post-dose (10-11 samples per animal). Samples were collected on wet ice in tubes containing potassium EDTA. After each blood draw, the cannula was flushed with an equivalent volume of heparinized saline (0.1 mL at 40 units/mL). Plasma samples, prepared by centrifugation of whole blood, were stored frozen (−80° C.) prior to analysis.
# [4] = Metabolite identification in hepatocytes; type: in vitro ADME, rat, dog, monkey, human; settings: rat, dog or human hepatocytes
# Experimental: Rat, dog, monkey, or human hepatocytes were thawed according to the supplier's instructions. Cells were counted using the Trypan Blue method, and then diluted to 1×10^6 viable cells/ml with KB medium. Compound 1 was tested at 30 μM and incubated for up to 2 hours in rat hepatocytes and 4 hours in dog, monkey or human hepatocytes at 37° C. Reactions were terminated with addition of 3 times incubation volume of acetonitrile, centrifuged, and supernatants were transferred, nitrogen blow dried and reconstituted in 50% acetonitrile in water for LC/MS analysis.
# LC/MS/MS analysis was carried out with a Sciex API-4000Qtrap tandem mass spectrometer (Applied Biosystems/Life Technologies, Carlsbad, Calif.) interfaced to a high-performance liquid chromatography system consisting of an Agilent 1200 series pump (Foster City, Calif.) and a LEAP Technologies PAL autoinjector (Carrboro, N.C.).
# Parent/metabolite analysis was conducted in the positive ion mode (ESI) by multiple reaction monitoring of parent. The mobile phases contained 10 mM ammonium acetate in water with 0.05% formic acid (solvent A) and 10 mM ammonium acetate in 50% acetonitrile/50% methanol with 0.05% formic acid (solvent B). For Compound 1, the flow rate was maintained at 1 mL/min and the total run time was 2.5 min. Analytes were separated on a YMC ODS-AQ column (2.1×150 mm; 3 μm) and eluted with a linear gradient as follows: • 1. mobile phase was held for 0.5 min at 5% B, • 2. B was increased from 5% to 95% over the next 0.2 min, • 3. B was held constant for 1.3 min at 95%, and • 4. B was returned to the initial gradient conditions.
# GSH adducts were investigated in microsomes, hepatocytes and rat bile using several methods including the neutral loss of pyroglutamate (129 Da) as well as a precursor ion scans of Compound 1 (105 Da, 318 Da and 438 Da).
# For metabolite quantitation, the flow rate was maintained at 0.25 mL/min and the total run time was 60 min. Analytes were separated using a linear gradient as follows: • 1. mobile phase was held for 5 min at 5% B, • 2. B was increased from 5% to 95% over the next 45 min. • 3. […]
# LPA5 = LPA5 (Homo sapiens, UniProt Q9H1C0); experiment: LPA5 Calcium Flux Assay; type: cell-based; settings: read-out: Ca Flux IC50 LPA5
# Chain of LPA5 (Q9H1C0 whole entry, species assumed): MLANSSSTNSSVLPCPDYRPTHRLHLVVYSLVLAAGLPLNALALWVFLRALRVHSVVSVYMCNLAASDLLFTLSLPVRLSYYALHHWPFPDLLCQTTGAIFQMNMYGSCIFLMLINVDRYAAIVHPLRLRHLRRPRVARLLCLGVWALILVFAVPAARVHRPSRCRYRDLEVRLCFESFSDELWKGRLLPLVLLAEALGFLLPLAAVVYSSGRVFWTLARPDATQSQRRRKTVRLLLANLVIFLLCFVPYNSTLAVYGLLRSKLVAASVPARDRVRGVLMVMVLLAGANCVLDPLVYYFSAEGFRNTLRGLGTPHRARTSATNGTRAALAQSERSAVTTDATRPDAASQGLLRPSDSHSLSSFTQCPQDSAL
smiles,measurement,setting,value
"Cc1noc(-c2ccc(-c3ccc(C4(C(=O)O)CC4)cc3)cc2)c1NC(=O)O[C@H](C)c1ccccc1 [Compound 1, 1-{4′-[3-methyl-4-((R)-1-phenyl-ethoxycarbonylamino)-isoxazol-5-yl]-biphenyl-4-yl}-cyclopropanecarboxylic acid]",solubility at 2 h,"[1]; Target pH 3, pH adjusted with HCl or NaOH",< 1 µg/mL
same,solubility at 2 h,"[1]; Target pH 4, pH adjusted with HCl or NaOH",< 1 µg/mL
same,solubility at 2 h,"[1]; Target pH 5, pH adjusted with HCl or NaOH",< 1 µg/mL
same,solubility at 2 h,"[1]; Target pH 6, pH adjusted with HCl or NaOH",< 1 µg/mL
same,solubility at 2 h,"[1]; Target pH 7, pH adjusted with HCl or NaOH",3.3 µg/mL
same,solubility at 2 h,"[1]; Target pH 8, pH adjusted with HCl or NaOH",35 µg/mL
same,solubility at 2 h,"[1]; Target pH 9, pH adjusted with HCl or NaOH",930 µg/mL
same,solubility at 2 h,"[1]; Target pH 11, pH adjusted with HCl or NaOH",13000 µg/mL
same,solubility at 24 h,"[2]; 25 °C, thermodynamic from solid, read-out: Solubility (mg/ml, free form equivalent)",0.028 mg/mL
same,"Solubility (mg/ml, free form equivalent)",[2]; listed as free acid,0.031 mg/mL
same,mean dose adjusted exposure (AUC0-24/D),[3]; females,1.9 µg·h/mL
same,mean dose adjusted exposure (AUC0-24/D),[3]; males,2.1 µg·h/mL
same,exposure in fed vs. fasted animals,[3]; PO 10 mg/kg,slightly lower exposure in fed animals vs. fasted
same,dose adjusted AUC value (AUC0-24/D),"[3]; PO 10 mg/kg, female rats",2.7 µg·h/mL
same,dose adjusted AUC value (AUC0-24/D),"[3]; PO 10 mg/kg, male rats",2.4 µg·h/mL
same,dose proportionality of exposure,"[3]; PO 30, 100 and 300 mg/kg",greater than dose proportional
same,dose proportionality of exposure,"[3]; PO doses of 1 and 10 mg/kg, suspension",dose proportional
same,Cmax,[3]; female rats,300 ng/mL
same,bioavailability,[3]; female,58%
same,Cmax,[3]; male rats,400 ng/mL
same,bioavailability,[3]; male,63%
same,AUC(0-t),[3]; female rats,1400 ng·h/mL
same,AUC(0-t),[3]; male rats,1600 ng·h/mL
same,regional absorption,"[3]; administered directly to duodenum, jejunum or ileum at 1 mg/kg",good oral bioavailability along the entire gastrointestinal tract
same,dose normalized exposure,"[3]; oral, 10 mg/kg",5.1 µg·h/mL
same,GSH adduct in hepatocytes,[4],No GSH adduct was observed
same,IC50,LPA5,> 1000 nM
